# Patent US20190160156A1, “Use of Acid Stable Proteases in Animal Feed, Preferably to Increase Performance of Cocc-Vaccinated Broiler Chickens” (Novozymes A/S, priority 2011, published 2019)
# Tested on: male birds Cobb X Cobb chicks
# Experiment: Floor pen feeding trial of cocci-vaccinated birds with ProAct and enzyme combinations (Example 3)
# Assay type: in vivo, male broiler chickens (Cobb X Cobb)
# Details: Day 42, male Cobb X Cobb broilers
# Description: A floor pen trial was conducted using day old male birds Cobb X Cobb chicks. A total of 2,160 were allocated to the study. The experiment consisted of 48 pens of 45 male broiler chickens. Treatments were replicated in eight (8) blocks with six (6) treatments randomized in each. The birds were fed nutritionally-adequate basal diets based on corn/soybean meal and adjusted to the bird age by feeding a starter diet from day 1 to 16 and a grower diet from day 17 to 32 and a finisher diet from day 33 to 42. The 6 treatments were as follows:
# As treatment RONOZYME® enzyme products, supplied by DSM Nutritional Products, Kaiseraugst, Switzerland have been used.
# Ronozyme®AX=80% Ronozyme®WX+20% Ronozyme®A
# Ronozyme® ProAct=pure protease product.
# All birds received Cocci Vac® B on day 1 of age administered nasally in the hatchery except the positive control birds that were given a standard dose of the coccidiostat Salinomcyin of 60 g/ton of feed throughout the study
# At the end of the trial at day 42 the average bird weight (Avg. Wt. Gain) and the average feed consumption (Feed Consump.) were determined and the Feed Conversion Ratio (FRC) was calculated by dividing the feed intake by the weight gain for each treatment
smiles,measurement,setting,value
"CC[C@@H](C(=O)[C@@H](C)[C@@H](O)[C@H](C)[C@@H]1O[C@@H]([C@@H](CC)C(=O)O)CC[C@@H]1C)[C@H]1O[C@]2(C=C[C@@H](O)[C@]3(CC[C@@](C)([C@H]4CC[C@](O)(CC)[C@H](C)O4)O3)O2)[C@H](C)C[C@@H]1C [Salinomcyin 60 g/t, Salinomycin]",Avg. Wt. Gain,average bird weight,2.490 a
same,Feed Consump.,average feed consumption,191.58 a
same,FCR,feed intake divided by weight gain,1.719 days
